In ChEMBL document CHEMBL1240320, “Antibacterial lysine analogs that target lysine riboswitches” (Nat Chem Biol, 2007) one finds Kd, Activity and MIC data, which are given here for 14 compounds.

In test [1] the target is Nucleic Acid. Put plainly: Binding affinity to Bacillus subtilis 168 1A1 lysine riboswitch 179 lysc by in-line probing assay. Type of test: nucleic-acid assay, Bacillus subtilis subsp. subtilis str. 168.
In test [2] the test system is Bacillus subtilis. Put plainly: Antibacterial activity against Bacillus subtilis 1A40 at 1 mM after 3 hrs by CLSI method. Type of test: functional, organism-based.
The subject of test [3] is Bacillus subtilis. Description: Antibacterial activity against Bacillus subtilis 168 M1 harboring G163A mutation in P4 motif after 24 hrs by CLSI method. Type of test: functional.
The subject of test [4] is Bacillus subtilis. Put plainly: Antibacterial activity against Bacillus subtilis 168 M2 harboring adenosine deletion within 95 to 97 sequence in loop E of P2 motif after 24 hrs by CLSI method. The class given is functional.
Test [5] deals with Nucleic Acid. Description: Binding affinity to Bacillus subtilis 168 1A1 lysine riboswitch 179 lysc. Type of test: nucleic-acid assay, Bacillus subtilis subsp. subtilis str. 168.
The target in test [6] is Nucleic Acid. Description: Binding affinity to lysine riboswitch 179 lysc of Bacillus subtilis 168 M1 harboring G163A mutation in P4 motif. The class given is nucleic-acid assay, Bacillus subtilis subsp. subtilis str. 168.
For test [7], the target named is Nucleic Acid. Description: Binding affinity to lysine riboswitch 179 lysc of Bacillus subtilis 168 M2 harboring adenosine deletion within 95 to 97 sequence in loop E of P2 motif. Type of test: nucleic-acid assay, Bacillus subtilis subsp. subtilis str. 168.
The test system of test [8] is Bacillus subtilis. Description: Antibacterial activity against Bacillus subtilis 168 1A1 after 24 hrs by CLSI method. The class given is functional.
Test [9] has as its system Bacillus subtilis. Put plainly: Antibacterial activity against Bacillus subtilis 168 1A1 at 100 uM after 24 hrs by CLSI method. Type of test: functional, organism-based. Particulars: subsp. subtilis str. 168 1A1.
Test [10] relates to Bacillus subtilis. Description: Antibacterial activity against wild type Bacillus subtilis 168 1A1 assessed as inhibition of viable spore formation at 0.2 mM after 22 to 24 hrs. Type of test: functional, subsp. subtilis str. 168 1A1.
For test [11], the system named is Bacillus subtilis. Put plainly: Antibacterial activity against wild type Bacillus subtilis 168 1A1 assessed as inhibition of viable spore formation at 2 mM after 22 to 24 hrs. The class given is functional, subsp. subtilis str. 168 1A1.
Test [12] relates to Bacillus subtilis. Description: Antibacterial activity against L-4-oxalysine-resistant Bacillus subtilis 168 M2 assessed as inhibition of viable spore formation at 2 mM after 22 to 24 hrs. The class given is functional, subsp. subtilis str. 168 M2.
The mark [13] stands for this setting: subsp. subtilis str. 168 1A1, 24 h.
[14] abbreviates: subsp. subtilis str. 168 M1, 24 h.
The mark [15] stands for this setting: subsp. subtilis str. 168 M2, 24 h.

Converted amounts (≈) assume the structure as drawn. The source made the active and inactive calls. No cut-off for these calls is given here. Some results are limits rather than exact numbers.

The term Kd denotes a measure of binding affinity in units of concentration. A low value points to tighter binding. As usually defined, the MIC is the lowest concentration found to suppress growth.

`NCCCC[C@H](N)C(=O)O` [LYSINE]: the Kd worked out at 0.36 µM in [1], 1.7 µM in test [5], 3 µM in test [6] and 2.9 µM in [7]. Moreover, the outcome in [2] was inactive. Further, the MIC result in test [3] (subsp. subtilis str. 168 M1), in test [4] (subsp. subtilis str. 168 M2) and in test [8] (subsp. subtilis str. 168 1A1) was “inactive” each time.
`CC(=O)N[C@@H](CCCCN)C(=O)O` yielded a Kd in [1] of over 1000 µM. Further, the MIC in test [8] (setting [13]) is over 5 mM.
Regarding `NCCSC[C@H](N)C(=O)O`, the result in [1] (subsp. subtilis str. 168 1A1) was Active.
In test [1], `N=C(N)NCCCC[C@H](N)C(=O)O` came in with an equilibrium dissociation constant (Kd) of 7 µM. In addition, the result in [2] was inactive. Also, the MIC in test [8] (setting [13]) is over 5 mM.
`CN[C@@H](CCCCN)C(=O)O` returned a Kd in test [1] of over 1000 µM. In test [8] (setting [13]), the minimal inhibitory concentration (MIC) is over 5 mM.
With `NCCOC[C@H](N)C(=O)O`, the equilibrium dissociation constant (Kd) in test [1] was found to be 13 µM; in [5], 26 µM; in test [6], 29 µM; in test [7], 75 µM. The outcome in test [9] and in test [2] was Active. Besides, the Activity in test [10] is 71%; in [11], 6%; in test [12], 65%. The minimum inhibitory concentration (MIC) came to 1.56 mM (≈ 231 µg/mL) in test [3] (setting [14]), 1.56 mM (≈ 231 µg/mL) in test [4] (setting [15]) and 0.173 mM (≈ 25.6 µg/mL) in test [8] (setting [13]).
Compound `Nc1ccccc1C(=O)C[C@H](N)C(=O)O` [L-KYNURENINE] had a Kd in [1] of over 1000 µM. Also, the minimum inhibitory concentration (MIC) in test [8] (setting [13]) was over 5 mM.
Take `NC/C=C/CC(N)C(=O)O` (racemic): in test [1], the Kd stood at 0.97 µM. In addition, the outcome in test [9] and in test [2] was Active. The minimum inhibitory concentration (MIC) is over 5 mM in test [3] (setting [14]), over 5 mM in test [4] (setting [15]) and 0.938 mM (≈ 135 µg/mL) in [8] (setting [13]).
`C[N+](C)(C)CCCC[C@H](N)C(=O)O` [TRIMETHYLLYSINE]: the Kd in [1] was over 1000 µM. In [8] (setting [13]), this compound returned a minimal inhibitory concentration (MIC) of over 5 mM.
In test [1], `CC(=N)NCCCC[C@H](N)C(=O)O` [L-NIL] gave a dissociation constant Kd of 11 µM. The outcome in [9] was inactive. Besides, in test [8] (setting [13]), the MIC was over 5 mM.
In [1], `CC(=O)NCCCC[C@H](N)C(=O)O` came in with a Kd of over 1000 µM. Further, the MIC in [8] (setting [13]) is over 5 mM.
`NCC(=O)CCC(N)C(=O)O` (racemic) showed an equilibrium dissociation constant (Kd) in test [1] of over 1000 µM. This compound displayed an MIC in test [8] (setting [13]) of over 5 mM. Moreover, the Activity in test [11] was determined as 47%; in [12], 9%.
For `Nc1cc(C[C@H](N)C(=O)O)ccc1O`, the Kd in test [1] is over 1000 µM. For the same compound, the MIC in test [8] (setting [13]) was over 5 mM. In addition, the Activity in test [11] is recorded as 75%.
Turning to `NCCS(=O)(=O)C[C@H](N)C(=O)O`, the Kd in test [1] was determined as 2.5 µM; in test [5], 13 µM; in [6], 14 µM; in test [7] it was 24 µM. Further, the outcome in test [9] and in test [2] was Active. Besides, the Activity in test [10] is recorded as 7%; in test [11], 0%; in test [12] it was 17%. For the same compound, the results for the minimal inhibitory concentration (MIC) in test [3] (setting [14]), in test [4] (setting [15]) and in [8] (setting [13]) were 1.56 mM (≈ 306 µg/mL), 3.44 mM (≈ 675 µg/mL) and 0.026 mM (≈ 5.1 µg/mL), respectively.
